# Laboratory results as given in ChEMBL document CHEMBL1138574, “Regioselective synthesis and stereochemical structure of anti-tumor active dispiro[3H-indole-3,2'-pyrrolidine-3',3''-piperidine]-2(1H),4''-diones” (2009).
# Key:
# Type in all cases: functional
# [1] = system: EKVX; assay: Antitumor activity against human EKVX cells assessed as cell growth at 10 uM after 48 hrs by sulforhodamine B assay; conditions: read-out: Activity
# [2] = system: HCC 2998; assay: Antitumor activity against human HCC2998 cells assessed as cell growth at 10 uM after 48 hrs by sulforhodamine B assay; conditions: HCC 2998, 48 h, read-out: Activity
# [3] = system: HCT-116; assay: Antitumor activity against human HCT116 cells assessed as cell growth at 10 uM after 48 hrs by sulforhodamine B assay; conditions: HCT-116, 48 h, read-out: Activity
# [4] = system: HT-29; assay: Antitumor activity against human HT-29 cells assessed as cell growth at 10 uM after 48 hrs by sulforhodamine B assay; conditions: HT-29, 48 h, read-out: Activity
# [5] = system: SW-620; assay: Antitumor activity against human SW620 cells assessed as cell growth at 10 uM after 48 hrs by sulforhodamine B assay; conditions: SW-620, 48 h, read-out: Activity
# [6] = system: MDA-MB-468; assay: Antitumor activity against human MDA-MB-468 cells assessed as cell growth at 10 uM after 48 hrs by sulforhodamine B assay; conditions: MDA-MB-468, 48 h, read-out: Activity
# [7] = system: NCI/ADR-RES; assay: Antitumor activity against human NCI/ADR-RES cells assessed as cell growth at 10 uM after 48 hrs by sulforhodamine B assay; conditions: read-out: Activity
# [8] = system: T47D; assay: Antitumor activity against human T47D cells assessed as cell growth at 10 uM after 48 hrs by sulforhodamine B assay; conditions: read-out: Activity
# [9] = system: OVCAR-4; assay: Antitumor activity against human OVCAR4 cells assessed as cell growth at 10 uM after 48 hrs by sulforhodamine B assay; conditions: OVCAR-4, 48 h, read-out: Activity
# [10] = system: OVCAR-8; assay: Antitumor activity against human OVCAR8 cells assessed as cell growth at 10 uM after 48 hrs by sulforhodamine B assay; conditions: OVCAR-8, 48 h, read-out: Activity
# [11] = system: SK-OV-3; assay: Antitumor activity against human SKOV3 cells assessed as cell growth at 10 uM after 48 hrs by sulforhodamine B assay; conditions: SK-OV-3, 48 h, read-out: Activity
# [12] = system: HL-60(TB); assay: Antitumor activity against human HL-60(TB) cells assessed as cell growth at 10 uM after 48 hrs by sulforhodamine B assay; conditions: HL-60, 48 h, read-out: Activity
# [13] = system: K562; assay: Antitumor activity against human K562 cells assessed as cell growth at 10 uM after 48 hrs by sulforhodamine B assay; conditions: K562, 48 h, read-out: Activity
# [14] = system: MOLT-4; assay: Antitumor activity against human MOLT4 cells assessed as cell growth at 10 uM after 48 hrs by sulforhodamine B assay; conditions: MOLT-4, 48 h, read-out: Activity
# [15] = Antitumor activity against human […] cells assessed as cell growth at 10 uM after 48 hrs by sulforhodamine B assay; conditions: read-out: Activity
# [16] = system: SR; assay: Antitumor activity against human SR cells assessed as cell growth at 10 uM after 48 hrs by sulforhodamine B assay; conditions: read-out: Activity
# [17] = system: ACHN; assay: Antitumor activity against human ACHN cells assessed as cell growth at 10 uM after 48 hrs by sulforhodamine B assay; conditions: read-out: Activity
# [18] = system: RXF 393; assay: Antitumor activity against human RXF393 cells assessed as cell growth at 10 uM after 48 hrs by sulforhodamine B assay; conditions: RXF 393, 48 h, read-out: Activity
# [19] = system: SN12C; assay: Antitumor activity against human SN12C cells assessed as cell growth at 10 uM after 48 hrs by sulforhodamine B assay; conditions: read-out: Activity
# [20] = system: TK-10; assay: Antitumor activity against human TK10 cells assessed as cell growth at 10 uM after 48 hrs by sulforhodamine B assay; conditions: TK-10, 48 h, read-out: Activity
# [21] = system: UO-31; assay: Antitumor activity against human UO31 cells assessed as cell growth at 10 uM after 48 hrs by sulforhodamine B assay; conditions: UO-31, 48 h, read-out: Activity
# [22] = system: LOX IMVI; assay: Antitumor activity against human LOXIMVI cells assessed as cell growth at 10 uM after 48 hrs by sulforhodamine B assay; conditions: read-out: Activity
# [23] = system: SK-MEL-2; assay: Antitumor activity against human SK-MEL-2 cells assessed as cell growth at 10 uM after 48 hrs by sulforhodamine B assay; conditions: SK-MEL-2, 48 h, read-out: Activity
# [24] = system: UACC-257; assay: Antitumor activity against human UACC257 cells assessed as cell growth at 10 uM after 48 hrs by sulforhodamine B assay; conditions: UACC-257, 48 h, read-out: Activity
# [25] = system: UACC-62; assay: Antitumor activity against human UACC62 cells assessed as cell growth at 10 uM after 48 hrs by sulforhodamine B assay; conditions: UACC-62, 48 h, read-out: Activity
# [26] = system: DU-145; assay: Antitumor activity against human DU145 cells assessed as cell growth at 10 uM after 48 hrs by sulforhodamine B assay; conditions: DU-145, 48 h, read-out: Activity
# [27] = system: PC-3; assay: Antitumor activity against human PC3 cells assessed as cell growth at 10 uM after 48 hrs by sulforhodamine B assay; conditions: PC-3, 48 h, read-out: Activity
# [28] = system: SF-268; assay: Antitumor activity against human SF268 cells assessed as cell growth at 10 uM after 48 hrs by sulforhodamine B assay; conditions: SF-268, 48 h, read-out: Activity
# [29] = system: Rattus norvegicus; assay: Antiinflammatory activity in Wister albino rat assessed as inhibition of carrageenan-induced paw oedema at 50 mg/kg, ip administered 1 hr before carrageenan challenge measured after 24 hrs of induction of inflammation relative to control; conditions: route intraperitoneal
# [30] = system: SF-295; assay: Antitumor activity against human SF295 cells assessed as cell growth at 10 uM after 48 hrs by sulforhodamine B assay; conditions: SF-295, 48 h, read-out: Activity
Structure (SMILES),growth at 10 µM [1] [%],growth at 10 µM [2] [%],growth at 10 µM [3] [%],growth at 10 µM [4] [%],growth at 10 µM [5] [%],growth at 10 µM [6] [%],growth at 10 µM [7] [%],growth at 10 µM [8] [%],growth at 10 µM [9] [%],growth at 10 µM [10] [%],growth at 10 µM [11] [%],growth at 10 µM [12] [%],growth at 10 µM [13] [%],growth at 10 µM [14] [%],growth at 10 µM [15] [%],growth at 10 µM [16] [%],growth at 10 µM [17] [%],growth at 10 µM [18] [%],growth at 10 µM [19] [%],growth at 10 µM [20] [%],further results
CN1C/C(=C\c2ccc(-c3cccs3)cc2)C(=O)[C@]2(C1)[C@@H](c1ccc(-c3cccs3)cc1)CN(C)[C@@]21C(=O)N(C)c2ccccc21,47.1,40.6,30.6,56.1,53.8,33.4,37.7,22.7,37.3,65.7,59.5,22.6,59.5,27.2,10.6,30.5,56.5,55.6,64.3,78.8,growth at 10 µM [21]: 45.4%; growth at 10 µM [22]: 65%; growth at 10 µM [23]: 68.6%; growth at 10 µM [24]: 64.6%; growth at 10 µM [25]: 47.6%; growth at 10 µM [26]: 67.4%; growth at 10 µM [27]: 17.8%; growth at 10 µM [28]: 72.4%; inhibition in vivo at 50 mg/kg [29]: 74.3%
COc1ccc(/C=C2\CN(C)C[C@@]3(C2=O)[C@@H](c2ccccc2)CN(C)[C@@]32C(=O)Nc3ccccc32)cc1,64.2,65.5,26.8,58.1,47.8,58.9,36.5,31.6,52.7,52.4,75.6,21.5,73.3,17.2,20.7,52.3,49.1,57.8,58.4,73.1,growth at 10 µM [21]: 40.4%; growth at 10 µM [22]: 65.3%; growth at 10 µM [23]: 60.7%; growth at 10 µM [24]: 70.3%; growth at 10 µM [25]: 47.8%; growth at 10 µM [26]: 70.3%; growth at 10 µM [27]: 21%; growth at 10 µM [28]: 61.8%; inhibition in vivo at 50 mg/kg [29]: 52.9%
CN1C/C(=C\c2ccc(Cl)cc2)C(=O)[C@]2(C1)[C@@H](c1ccc(Cl)cc1)CN(C)[C@@]21C(=O)N(C)c2ccccc21,42.1,71.9,29.9,68.4,68.1,66.9,56.9,46.7,43.1,79.5,85.2,16.6,30.4,43.2,38,70.3,57.5,67.2,62.9,81.8,growth at 10 µM [21]: 56.6%; growth at 10 µM [22]: 73.9%; growth at 10 µM [23]: 71.9%; growth at 10 µM [24]: 72%; growth at 10 µM [25]: 59.9%; growth at 10 µM [26]: 88.4%; growth at 10 µM [27]: 32.5%; growth at 10 µM [28]: 83.6%; growth at 10 µM [30]: 65.6%; inhibition in vivo at 50 mg/kg [29]: 49.3%
CN1C/C(=C\c2ccc(Cl)cc2)C(=O)[C@]2(C1)[C@@H](c1ccc(Cl)cc1)CN(C)[C@@]21C(=O)Nc2ccccc21,37.2,70.7,45.9,59.5,57.7,56.6,62.1,46.1,49.6,69.4,80.6,41.6,45.1,37.4,38.5,67.5,63.6,67.5,64.1,88.6,growth at 10 µM [21]: 43.2%; growth at 10 µM [22]: 72.3%; growth at 10 µM [23]: 76.2%; growth at 10 µM [24]: 79.3%; growth at 10 µM [25]: 67.2%; growth at 10 µM [26]: 83.8%; growth at 10 µM [27]: 24.9%; growth at 10 µM [28]: 60.6%; growth at 10 µM [30]: 64.5%; inhibition in vivo at 50 mg/kg [29]: 38.2%
